Experimental data reported in patent EP0319030A1, “Aminopropanol derivatives of 1,4:3,6-dianhydro-hexitol nitrates, processes for their preparation and their use as medicaments” (Heinrich Mack Nachf., priority 1987, dated 1989).

How the values were obtained:
anesthetized dogs = experiment: Cardiovascular actions following intra-venous administration, opened thorax and artificial respiration; type: in vivo; conditions: opened thorax, artificial respiration
Text: (§1) In particular, they have a pronounced cardiovascular action. On isolated strips of veins from dogs, they act against the K⁺-induced contraction in a lower concentration than on aorta strips. On isolated hearts from guinea pigs, they increase coronary flow as a function of the dose. On anesthetized rats, they prevent lypressin coronary spasm as a function of the dose and significiantly increase the survival rate of rats following acute cardiac infarction. On normotensive conscious dogs, they lower the systolic blood pressure for a period of 6-8 hours after oral administration. On artifically respirated anesthetized, thoraxotomized dogs, they reduce the mean arterial pressure, the left ventricular systolic pressure, the left ventricular end diastolic pressure and the pressure in the Arteria pulmonalis and reduce the peripheral vascular resistance. In contrast to the known organic nitrate esters, they also lead to a long-lasting reduction in the systolic blood pressure of spontaneously hypertensive rats. Such an action profile is not known for any of the substances of similar structure which have already been described.

conscious beagle dogs = experiment: Systolic blood pressure and heart rate following peroral administration; type: in vivo; conditions: 5.0 mg/kg peroral, mean ± SEM
Text: as §1

With `COc1ccccc1N1CCN(CC(O)CO[C@H]2CO[C@H]3[C@@H]2OC[C@@H]3O[N+](=O)[O-])CC1` (stereo partly drawn) [Example 20, 5-O-<3-[4-(2-Methoxyphenyl)-piprazinyl]-2-hydroxypropyl>-isoidide-2-nitrate] the “PAP, Change” value (anesthetized dogs; 300 µg/kg intra-venous) was 0.7 ± 0.3 mmHg, the “PAP, Duration of action” value (anesthetized dogs; 300 µg/kg intra-venous) was 14 ± 13 min and the “SV, Action of substance” value (anesthetized dogs; 300 µg/kg intra-venous) was 7.2 ± 2.5 mL/s. The “SV, Change” value (anesthetized dogs; 300 µg/kg intra-venous) was 0.5 ± 2.9 mL/s, the “SV, Duration of action” value (anesthetized dogs; 300 µg/kg intra-venous) was 33 ± 23 min and the “TPR (total peripheral vascular resistance), Action of substance” value (anesthetized dogs; 300 µg/kg intra-venous) was 35 ± 6 mmHg/ml. For the same compound, the “TPR (total peripheral vascular resistance), Change” value (anesthetized dogs; 300 µg/kg intra-venous) was 39 ± 9 mmHg/ml, the “TPR (total peripheral vascular resistance), Duration of action” value (anesthetized dogs; 300 µg/kg intra-venous) was 6 ± 2 min and the “dp/dtmax (maximum rate of increase in the left ventricular pressure), Action of substance” value (anesthetized dogs; 300 µg/kg intra-venous) was 2056 ± 385 mmHg/s. The “dp/dtmax (maximum rate of increase in the left ventricular pressure), Change” value (anesthetized dogs; 300 µg/kg intra-venous) was 1053 ± 333 mmHg/s, the “dp/dtmax (maximum rate of increase in the left ventricular pressure), Duration of action” value (anesthetized dogs; 300 µg/kg intra-venous) was 36 ± 11 min and the “CO, Action of substance” value (anesthetized dogs; 3000 µg/kg intra-venous) was 2.02 ± 0.8 l/M. The “CO, Change” value (anesthetized dogs; 3000 µg/kg intra-venous) was 0.87 ± 0.7 l/M, the “CO, Duration of action” value (anesthetized dogs; 3000 µg/kg intra-venous) was 3 ± 0.4 min and the “HR (heart rate), Action of substance” value (anesthetized dogs; 3000 µg/kg intra-venous) was 169 ± 34 Bts/M. For the same compound, the “HR (heart rate), Change” value (anesthetized dogs; 3000 µg/kg intra-venous) was 30 ± 15 Bts/M, the “HR (heart rate), Duration of action” value (anesthetized dogs; 3000 µg/kg intra-venous) was 80 ± 44 min and the “LVEDP (left ventricular enddiastolic pressure), Action of substance” value (anesthetized dogs; 3000 µg/kg intra-venous) was 2.7 ± 3.8 mmHg. For the same compound, the “LVEDP (left ventricular enddiastolic pressure), Change” value (anesthetized dogs; 3000 µg/kg intra-venous) was 2.3 ± 1.7 mmHg, the “LVEDP (left ventricular enddiastolic pressure), Duration of action” value (anesthetized dogs; 3000 µg/kg intra-venous) was 104 ± 51 min and the “LVSP (left ventricular systolic blood pressure), Action of substance” value (anesthetized dogs; 3000 µg/kg intra-venous) was 98 ± 21 mmHg. The “LVSP (left ventricular systolic blood pressure), Change” value (anesthetized dogs; 3000 µg/kg intra-venous) was 55 ± 15 mmHg, the “LVSP (left ventricular systolic blood pressure), Duration of action” value (anesthetized dogs; 3000 µg/kg intra-venous) was 128 ± 12 min and the “MAP (mean arterial blood pressure), Action of substance” value (anesthetized dogs; 3000 µg/kg intra-venous) was 56 ± 2 mmHg. For the same compound, the “MAP (mean arterial blood pressure), Change” value (anesthetized dogs; 3000 µg/kg intra-venous) was 45 ± 5 mmHg, the “MAP (mean arterial blood pressure), Duration of action” value (anesthetized dogs; 3000 µg/kg intra-venous) was 118 ± 20 min and the “PAP, Action of substance” value (anesthetized dogs; 3000 µg/kg intra-venous) was 14.6 ± 1 mmHg. For the same compound, the “PAP, Change” value (anesthetized dogs; 3000 µg/kg intra-venous) was 1.1 ± 0.3 mmHg, the “PAP, Duration of action” value (anesthetized dogs; 3000 µg/kg intra-venous) was greater than 177 min and the “SV, Action of substance” value (anesthetized dogs; 3000 µg/kg intra-venous) was 10.6 ± 3.3 mL/s. For the same compound, the “SV, Change” value (anesthetized dogs; 3000 µg/kg intra-venous) was 50 ± 0.7 mL/s, the “SV, Duration of action” value (anesthetized dogs; 3000 µg/kg intra-venous) was 4 ± 0.0 min and the “TPR (total peripheral vascular resistance), Action of substance” value (anesthetized dogs; 3000 µg/kg intra-venous) was 24 ± 7 mmHg/ml. For the same compound, the “TPR (total peripheral vascular resistance), Change” value (anesthetized dogs; 3000 µg/kg intra-venous) was 56 ± 7 mmHg/ml, the “TPR (total peripheral vascular resistance), Duration of action” value (anesthetized dogs; 3000 µg/kg intra-venous) was 27 ± 21 min and the “dp/dtmax (maximum rate of increase in the left ventricular pressure), Action of substance” value (anesthetized dogs; 3000 µg/kg intra-venous) was 1977 ± 537 mmHg/s. The “dp/dtmax (maximum rate of increase in the left ventricular pressure), Change” value (anesthetized dogs; 3000 µg/kg intra-venous) was 1395 ± 263 mmHg/s, the “dp/dtmax (maximum rate of increase in the left ventricular pressure), Duration of action” value (anesthetized dogs; 3000 µg/kg intra-venous) was greater than 148 min and the “HR (heart rate), Action of substance after 1 hours” value (conscious beagle dogs) was 98 ± 7 Bts/M. For the same compound, the “HR (heart rate), Action of substance after 2 hours” value (conscious beagle dogs) was 109 ± 10 Bts/M, the “HR (heart rate), Action of substance after 4 hours” value (conscious beagle dogs) was 82 ± 7 Bts/M and the “HR (heart rate), Action of substance after 6 hours” value (conscious beagle dogs) was 78 ± 6 Bts/M. For the same compound, the “HR (heart rate), Action of substance after 8 hours” value (conscious beagle dogs) was 77 ± 6 Bts/M, the “SBP (systolic blood pressure), Action of substance after 1 hours” value (conscious beagle dogs) was 97 ± 8 mmHg and the “SBP (systolic blood pressure), Action of substance after 2 hours” value (conscious beagle dogs) was 95 ± 6 mmHg. For the same compound, the “SBP (systolic blood pressure), Action of substance after 4 hours” value (conscious beagle dogs) was 106 ± 4 mmHg, the “SBP (systolic blood pressure), Action of substance after 6 hours” value (conscious beagle dogs) was 113 ± 4 mmHg and the “SBP (systolic blood pressure), Action of substance after 8 hours” value (conscious beagle dogs) was 121 ± 3 mmHg.
